Drawing on the supplement of paper PMC10307832, this text covers relative viability for 7 cell lines.

Common to all, as to assay: relative viability (nuclei count vs DMSO), 5 days (fraction); higher = more cells survive
Compound in the assay “VE-821 + Tozasertib”: CS(=O)(=O)c1ccc(-c2cnc(N)c(C(=O)Nc3ccccc3)n2)cc1 [VE-821] + Cc1cc(Nc2cc(N3CCN(C)CC3)nc(Sc3ccc(NC(=O)C4CC4)cc3)n2)n[nH]1 [Tozasertib] (partner 0.1 µM)
The gist of the method: (§1)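 Lung cancer cell lines in 1536-well plates were dosed by pin tool the day after seeding, either with one drug alone or with a fixed anchor-drug dose plus five library-drug doses (not always all listed) in √10 steps. After 5 days, cells were fixed and their nuclei stained in one step (final 0.05% Triton X-100, 1% formaldehyde, 1 ug/ml Hoechst), then counted on 4× images. Relative viability is the nuclei count in treated wells divided by that in vehicle wells. Values are medians of duplicate plates.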

Compound in the assay “Vismodegib + Trametinib”: CS(=O)(=O)c1ccc(C(=O)Nc2ccc(Cl)c(-c3ccccn3)c2)c(Cl)c1 [Vismodegib] + CC(=O)Nc1cccc(-n2c(=O)n(C3CC3)c(=O)c3c(Nc4ccc(I)cc4F)n(C)c(=O)c(C)c32)c1 [Trametinib] (partner 0.02 µM)
The gist of the method:
as §1

Compound in the assay “Vismodegib + Pemetrexed”: CS(=O)(=O)c1ccc(C(=O)Nc2ccc(Cl)c(-c3ccccn3)c2)c(Cl)c1 [Vismodegib] + Nc1nc2[nH]cc(CCc3ccc(C(=O)N[C@@H](CCC(=O)O)C(=O)O)cc3)c2c(=O)[nH]1 [Pemetrexed] (partner 0.2 µM)
The method in brief:
as §1

Compound in the assay “Ruxolitinib + Dasatinib”: N#CC[C@H](C1CCCC1)n1cc(-c2ncnc3[nH]ccc23)cn1 [Ruxolitinib] + Cc1nc(Nc2ncc(C(=O)Nc3c(C)cccc3Cl)s2)cc(N2CCN(CCO)CC2)n1 [Dasatinib] (partner 0.075 µM)
The gist of the method: as §1

Take 201T: the relative viability with VE-821 + Tozasertib (first compound 0.08 µM) amounted to 1.04; with VE-821 + Tozasertib (first compound 0.253 µM), 0.988; with VE-821 + Tozasertib (first compound 0.8 µM) it was 0.896; with VE-821 + Tozasertib (first compound 2.53 µM), 0.929; with VE-821 + Tozasertib (first compound 8 µM), 0.636; with Vismodegib + Trametinib (first compound 0.08 µM), 0.724. In addition, the relative viability was determined as 0.721 with Vismodegib + Trametinib (first compound 0.253 µM); 0.737 with Vismodegib + Trametinib (first compound 0.8 µM); 0.698 with Vismodegib + Trametinib (first compound 2.53 µM); 0.657 with Vismodegib + Trametinib (first compound 8 µM); 0.323 with Vismodegib + Pemetrexed (first compound 0.08 µM); 0.354 in the assay with Vismodegib + Pemetrexed (first compound 0.253 µM). In addition, the relative viability in the assay with Vismodegib + Pemetrexed (first compound 0.8 µM) was determined as 0.336; with Vismodegib + Pemetrexed (first compound 2.53 µM), 0.335; with Vismodegib + Pemetrexed (first compound 8 µM), 0.297; with Ruxolitinib + Dasatinib (first compound 0.08 µM), 0.571; with Ruxolitinib + Dasatinib (first compound 0.253 µM), 0.593; in the assay with Ruxolitinib + Dasatinib (first compound 0.8 µM) it was 0.67. Also, the relative viability with Ruxolitinib + Dasatinib (first compound 2.53 µM) and in the assay with Ruxolitinib + Dasatinib (first compound 8 µM) was 0.558 each time.
With A-427, the relative viability with VE-821 + Tozasertib (first compound 0.08 µM) worked out at 0.231; in the assay with VE-821 + Tozasertib (first compound 0.253 µM), 0.186; with VE-821 + Tozasertib (first compound 0.8 µM), 0.217; with VE-821 + Tozasertib (first compound 2.53 µM) it was 0.192; in the assay with VE-821 + Tozasertib (first compound 8 µM), 0.144; in the assay with Vismodegib + Trametinib (first compound 0.08 µM), 0.812. The relative viability in the assay with Vismodegib + Trametinib (first compound 0.253 µM) came to 0.82; in the assay with Vismodegib + Trametinib (first compound 0.8 µM), 0.654; in the assay with Vismodegib + Trametinib (first compound 2.53 µM) it was 0.777; with Vismodegib + Trametinib (first compound 8 µM) it was 0.913; with Vismodegib + Pemetrexed (first compound 0.08 µM) it was 1.08; with Vismodegib + Pemetrexed (first compound 0.253 µM), 0.939. For the same cell line, the relative viability amounted to 0.912 in the assay with Vismodegib + Pemetrexed (first compound 0.8 µM); 1.01 in the assay with Vismodegib + Pemetrexed (first compound 2.53 µM); 0.902 with Vismodegib + Pemetrexed (first compound 8 µM); 0.74 in the assay with Ruxolitinib + Dasatinib (first compound 0.08 µM); 0.751 with Ruxolitinib + Dasatinib (first compound 0.253 µM); 0.66 with Ruxolitinib + Dasatinib (first compound 0.8 µM). In addition, the results for the relative viability in the assay with Ruxolitinib + Dasatinib (first compound 2.53 µM) and with Ruxolitinib + Dasatinib (first compound 8 µM) were 0.441 and 0.463, respectively.
In the case of ABC-1, the relative viability with VE-821 + Tozasertib (first compound 0.08 µM) was 0.201; in the assay with VE-821 + Tozasertib (first compound 0.253 µM) it was 0.17; with VE-821 + Tozasertib (first compound 0.8 µM) it was 0.15; with VE-821 + Tozasertib (first compound 2.53 µM), 0.181; in the assay with VE-821 + Tozasertib (first compound 8 µM), 0.16; with Ruxolitinib + Dasatinib (first compound 0.253 µM), 0.53. The relative viability turned out to be 0.547 with Ruxolitinib + Dasatinib (first compound 0.8 µM), 0.64 with Ruxolitinib + Dasatinib (first compound 2.53 µM) and 0.45 in the assay with Ruxolitinib + Dasatinib (first compound 8 µM).
For the cell line BEN, the relative viability with VE-821 + Tozasertib (first compound 0.08 µM) is 0.591; with VE-821 + Tozasertib (first compound 0.253 µM), 0.579; in the assay with VE-821 + Tozasertib (first compound 0.8 µM) it was 0.495; with VE-821 + Tozasertib (first compound 2.53 µM), 0.631; with VE-821 + Tozasertib (first compound 8 µM) it was 0.589; with Vismodegib + Trametinib (first compound 0.08 µM), 1.14. The relative viability in the assay with Vismodegib + Trametinib (first compound 0.253 µM) turned out to be 1.03; in the assay with Vismodegib + Trametinib (first compound 0.8 µM), 0.873; with Vismodegib + Trametinib (first compound 2.53 µM), 1.14; with Vismodegib + Trametinib (first compound 8 µM), 1.1; with Vismodegib + Pemetrexed (first compound 0.08 µM), 0.679; with Vismodegib + Pemetrexed (first compound 0.253 µM), 0.682. Besides, the relative viability with Vismodegib + Pemetrexed (first compound 0.8 µM) was 0.784; with Vismodegib + Pemetrexed (first compound 2.53 µM), 0.754; in the assay with Vismodegib + Pemetrexed (first compound 8 µM), 0.737; with Ruxolitinib + Dasatinib (first compound 0.08 µM), 0.319; with Ruxolitinib + Dasatinib (first compound 0.253 µM) it was 0.311; with Ruxolitinib + Dasatinib (first compound 0.8 µM) it was 0.377. For the same cell line, the figures for the relative viability with Ruxolitinib + Dasatinib (first compound 2.53 µM) and with Ruxolitinib + Dasatinib (first compound 8 µM) were 0.292 and 0.335, respectively.
CAL-12T: the relative viability was found to be 0.307 in the assay with VE-821 + Tozasertib (first compound 0.08 µM); 0.227 with VE-821 + Tozasertib (first compound 0.253 µM); 0.189 with VE-821 + Tozasertib (first compound 0.8 µM); 0.207 with VE-821 + Tozasertib (first compound 2.53 µM); 0.147 with VE-821 + Tozasertib (first compound 8 µM); 0.309 in the assay with Vismodegib + Trametinib (first compound 0.08 µM). The relative viability with Vismodegib + Trametinib (first compound 0.253 µM) came out at 0.333; with Vismodegib + Trametinib (first compound 0.8 µM), 0.372; in the assay with Vismodegib + Trametinib (first compound 2.53 µM), 0.355; in the assay with Vismodegib + Trametinib (first compound 8 µM), 0.426; in the assay with Vismodegib + Pemetrexed (first compound 0.08 µM) it was 1.12; in the assay with Vismodegib + Pemetrexed (first compound 0.253 µM), 1.13. Also, the relative viability with Vismodegib + Pemetrexed (first compound 0.8 µM) amounted to 1.13; with Vismodegib + Pemetrexed (first compound 2.53 µM), 1.14; with Vismodegib + Pemetrexed (first compound 8 µM) it was 1.13; in the assay with Ruxolitinib + Dasatinib (first compound 0.08 µM) it was 0.497; in the assay with Ruxolitinib + Dasatinib (first compound 0.253 µM) it was 0.546; with Ruxolitinib + Dasatinib (first compound 0.8 µM) it was 0.561. The results for the relative viability with Ruxolitinib + Dasatinib (first compound 2.53 µM) and with Ruxolitinib + Dasatinib (first compound 8 µM) were 0.25 and 0.163, respectively.
On to COR-L23, for which the relative viability in the assay with VE-821 + Tozasertib (first compound 0.08 µM) is 0.195; with VE-821 + Tozasertib (first compound 0.253 µM), 0.168; with VE-821 + Tozasertib (first compound 0.8 µM), 0.131; in the assay with VE-821 + Tozasertib (first compound 2.53 µM), 0.142; with VE-821 + Tozasertib (first compound 8 µM) it was 0.14; with Vismodegib + Trametinib (first compound 0.08 µM) it was 0.525. Further, the relative viability with Vismodegib + Trametinib (first compound 0.253 µM) is 0.532; with Vismodegib + Trametinib (first compound 0.8 µM), 0.658; with Vismodegib + Trametinib (first compound 2.53 µM), 0.58; in the assay with Vismodegib + Trametinib (first compound 8 µM), 0.67; in the assay with Vismodegib + Pemetrexed (first compound 0.08 µM) it was 0.195; in the assay with Vismodegib + Pemetrexed (first compound 0.253 µM) it was 0.19. Further, the relative viability with Vismodegib + Pemetrexed (first compound 0.8 µM) amounted to 0.184; with Vismodegib + Pemetrexed (first compound 2.53 µM), 0.195; in the assay with Vismodegib + Pemetrexed (first compound 8 µM) it was 0.207; with Ruxolitinib + Dasatinib (first compound 0.08 µM), 0.483; with Ruxolitinib + Dasatinib (first compound 0.253 µM), 0.534; in the assay with Ruxolitinib + Dasatinib (first compound 0.8 µM), 0.521. The relative viability with Ruxolitinib + Dasatinib (first compound 2.53 µM) is 0.386; with Ruxolitinib + Dasatinib (first compound 8 µM), 0.341.
Consider COR-L 105, for which the relative viability with VE-821 + Tozasertib (first compound 0.08 µM) came to 0.37; with VE-821 + Tozasertib (first compound 0.253 µM) it was 0.373; with VE-821 + Tozasertib (first compound 0.8 µM) it was 0.374; in the assay with VE-821 + Tozasertib (first compound 2.53 µM), 0.284; with VE-821 + Tozasertib (first compound 8 µM), 0.333; in the assay with Vismodegib + Trametinib (first compound 0.08 µM), 0.451. In addition, the relative viability is 0.517 with Vismodegib + Trametinib (first compound 0.253 µM); 0.435 in the assay with Vismodegib + Trametinib (first compound 0.8 µM); 0.385 with Vismodegib + Trametinib (first compound 2.53 µM); 0.475 with Vismodegib + Trametinib (first compound 8 µM); 1.03 in the assay with Vismodegib + Pemetrexed (first compound 0.08 µM); 1.16 in the assay with Vismodegib + Pemetrexed (first compound 0.253 µM). Moreover, the relative viability turned out to be 1.08 with Vismodegib + Pemetrexed (first compound 0.8 µM); 1.03 with Vismodegib + Pemetrexed (first compound 2.53 µM); 1.16 with Vismodegib + Pemetrexed (first compound 8 µM); 0.313 in the assay with Ruxolitinib + Dasatinib (first compound 0.08 µM); 0.295 in the assay with Ruxolitinib + Dasatinib (first compound 0.253 µM); 0.326 with Ruxolitinib + Dasatinib (first compound 0.8 µM). The relative viability with Ruxolitinib + Dasatinib (first compound 2.53 µM) was found to be 0.214; with Ruxolitinib + Dasatinib (first compound 8 µM), 0.23.
